Measurements from patent US20260200926A1, “TREM2 MODULATORS” (Muna Therapeutics ApS, priority 2022, published 2026).
Where two headings read alike, the source gives them in different places.

Target: T1, Human TREM2 (Homo sapiens, UniProt Q9NZC2)
T1 construct: expressed in transfected cells
Experiment: Human TREM2 activity: cellular phosphorylation of Syk (AlphaLISA SureFire Ultra p-SYK) in HEK293/DAP12+TREM2 stable cell line
Assay type: cell-based
Details: for Emax: maximal response relative to reference agonist example 1B (remaining examples); for EC50: phospho-Syk AlphaLISA signal, HEK293/DAP12+TREM2 cells, concentration giving 50% of maximal response, read-out: EC50
How it was run: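 The read-out was p-Syk (Tyr525/526), measured by AlphaLISA in lysates of a stable HEK293/DAP12+TREM2 clone. Cells (10,000/well, plated the day before) received compound for 30 min at 37 °C. Dosing used 8 points in quadruplicate, top 100 μM with 1:6 dilution, 0.5% final DMSO.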

T1 sequence (Q9NZC2 19-230): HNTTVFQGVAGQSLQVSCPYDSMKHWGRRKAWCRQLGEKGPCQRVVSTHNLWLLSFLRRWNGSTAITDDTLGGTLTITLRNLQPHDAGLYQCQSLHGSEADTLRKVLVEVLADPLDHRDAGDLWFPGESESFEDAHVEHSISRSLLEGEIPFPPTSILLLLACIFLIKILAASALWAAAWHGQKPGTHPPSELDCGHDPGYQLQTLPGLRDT
T1 sequence (O43914 22-113 partner): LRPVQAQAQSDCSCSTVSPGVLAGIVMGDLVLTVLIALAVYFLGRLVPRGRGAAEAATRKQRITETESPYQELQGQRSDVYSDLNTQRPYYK

Row | Emax (HEK293, read-out: Emax) | EC50 | Emax | SMILES
1 | < 75% | 0.01 to 0.1 µM |  | Cc1nc2c(-c3ccc(F)cc3F)nc(N3CCOC(c4cnn(C)c4)C3)nc2c(=O)n1C (stereo not shown) [Example 5, 8-(2,4-difluorophenyl)-2,3-dimethyl-6-(2-(1-methyl-1H-pyrazol-4-yl)morpholino)pyrimido[5,4-d]pyrimidin-4(3H)-one]
2 | 75 to 110% | > 1 µM |  | Cc1nc2c(-c3ccc(F)c(F)c3F)nc(N3CCOC(c4cnn(C)c4)C3)nc2c(=O)n1C (stereo not shown) [Example 6, 2,3-dimethyl-6-(2-(1-methyl-1H-pyrazol-4-yl)morpholino)-8-(2,3,4-trifluorophenyl)pyrimido[5,4-d]pyrimidin-4(3H)-one]
3 | < 75% | 0.1 to 1 µM |  | Cc1nc2c(-c3ccc(F)c(F)c3)nc(N3CCOC(c4cnn(C)c4)C3)nc2c(=O)n1C (stereo not shown) [Example 9, 8-(3,4-difluorophenyl)-2,3-dimethyl-6-(2-(1-methyl-1H-pyrazol-4-yl)morpholino)pyrimido[5,4-d]pyrimidin-4(3H)-one]
4 |  | 0.1 to 1 µM | ++ (75-110%) | Cc1nc2c(C3CCC(C)CC3)nc(N3CCOC(c4cnn(C)c4)C3)nc2c(=O)n1C (stereo not shown) [Example 12b, 2,3-dimethyl-6-(2-(1-methyl-1H-pyrazol-4-yl)morpholino)-8-((1r,4r)-4-methylcyclohexyl)pyrimido[5,4-d]pyrimidin-4 (3H)-one]
5 | 75 to 110% | 0.001 to 0.01 µM |  | Cc1nc2c(-c3ccc(Cl)cc3F)nc(N3CCC(F)(F)C(c4cnn(C)c4)C3)nc2c(=O)n1C (stereo not shown) [Example 13, 8-(4-chloro-2-fluorophenyl)-6-(4,4-difluoro-3-(1-methyl-1H-pyrazol-4-yl)piperidin-1-yl)-2,3-dimethylpyrimido[5,4-d]pyrimidin-4 (3H)-one]
6 | 75 to 110% | 0.1 to 1 µM |  | Cc1nc2c(-c3ccc(Cl)cc3F)nc(N3CC(Oc4cnn(C)c4)C3)nc2c(=O)n1C [Example 16, 8-(4-chloro-2-fluorophenyl)-2,3-dimethyl-6-(3-((1-methyl-1H-pyrazol-4-yl)oxy)azetidin-1-yl)pyrimido[5,4-d]pyrimidin-4 (3H)-one]
7 | 75 to 110% | 0.1 to 1 µM |  | Cc1nc2c(-c3ccc(Cl)cc3F)nc(C3CCOC(c4cnn(C)c4)C3)nc2c(=O)n1C (stereo not shown) [Example 17, 8-(4-chloro-2-fluorophenyl)-2,3-dimethyl-6-(2-(1-methyl-1H-pyrazol-4-yl)tetrahydro-2H-pyran-4-yl)pyrimido[5,4-d]pyrimidin-4 (3H)-one]
8 | < 75% | > 1 µM |  | Cc1nc2c(-c3ccc(Cl)cc3F)nc(N3CC(OCc4cnn(C)c4)C3)nc2c(=O)n1C [Example 18, 8-(4-chloro-2-fluorophenyl)-2,3-dimethyl-6-(3-((1-methyl-1H-pyrazol-4-yl)methoxy)azetidin-1-yl)pyrimido[5,4-d]pyrimidin-4 (3H)-one]
9 | 75 to 110% | 0.1 to 1 µM |  | CCN1CCN(c2nc(-c3ccc(Cl)cc3F)c3nc(C)n(C)c(=O)c3n2)CC1c1cnn(C)c1 (stereo not shown) [Example 30, 8-(4-chloro-2-fluorophenyl)-6-(4-ethyl-3-(1-methyl-1H-pyrazol-4-yl)piperazin-1-yl)-2,3-dimethylpyrimido[5,4-d]pyrimidin-4(3H)-one]
10 | < 75% | 0.01 to 0.1 µM |  | Cc1nc2c(-c3ccc(Cl)cc3F)nc(N3CCN(CC(F)F)C(c4cnn(C)c4)C3)nc2c(=O)n1C (stereo not shown) [Example 32, 8-(4-chloro-2-fluorophenyl)-6-(4-(2,2-difluoroethyl)-3-(1-methyl-1H-pyrazol-4-yl)piperazin-1-yl)-2,3-dimethylpyrimido[5,4-d]pyrimidin-4(3H)-one]

More lines, now with the values behind:

Row | SMILES | Emax (HEK293, read-out: Emax) | EC50 | Emax
11 | Cc1nc2c(-c3ccc(C(F)(F)F)nc3)nc(N3CCOC(c4cnn(C)c4)C3)nc2c(=O)n1C (stereo not shown) [Example 4, 2,3-dimethyl-6-(2-(1-methyl-1H-pyrazol-4-yl)morpholino)-8-(6-(trifluoromethyl)pyridin-3-yl)pyrimido[5,4-d]pyrimidin-4(3H)-one] | 75 to 110% | 0.1 to 1 µM | 
12 | Cc1nc2c(-c3cc(F)c(F)cc3F)nc(N3CCOC(c4cnn(C)c4)C3)nc2c(=O)n1C (stereo not shown) [Example 7, 2,3-dimethyl-6-(2-(1-methyl-1H-pyrazol-4-yl)morpholino)-8-(2,4,5-trifluorophenyl)pyrimido[5,4-d]pyrimidin-4(3H)-one] | < 75% | 0.1 to 1 µM | 
13 | Cc1nc2c(-c3cc(F)c(F)c(F)c3)nc(N3CCOC(c4cnn(C)c4)C3)nc2c(=O)n1C (stereo not shown) [Example 8, 2,3-dimethyl-6-(2-(1-methyl-1H-pyrazol-4-yl)morpholino)-8-(3,4,5-trifluorophenyl)pyrimido[5,4-d]pyrimidin-4(3H)-one] | < 75% | 0.1 to 1 µM | 
14 | Cc1nc2c(-c3ccc(C(F)(F)F)cc3F)nc(N3CCOC(c4cnn(C)c4)C3)nc2c(=O)n1C (stereo not shown) [Example 10, 8-(2-fluoro-4-(trifluoromethyl)phenyl)-2,3-dimethyl-6-(2-(1-methyl-1H-pyrazol-4-yl)morpholino)pyrimido[5,4-d]pyrimidin-4(3H)-one] | 75 to 110% | 0.1 to 1 µM | 
15 | Cc1nc2c(C3CCC(F)(F)CC3)nc(N3CCOC(c4cnn(C)c4)C3)nc2c(=O)n1C (stereo not shown) [Example 11, 8-(4,4-difluorocyclohexyl)-2,3-dimethyl-6-(2-(1-methyl-1H-pyrazol-4-yl)morpholino)pyrimido[5,4-d]pyrimidin-4 (3H)-one] | 75 to 110% | 0.1 to 1 µM | 
16 | Cc1nc2c(nc(N3CCOC(c4cnn(C)c4)C3)nc2[C@H]2CC[C@@H](C)CC2)c(=O)n1C (stereo partly shown) [Example 12a, 2,3-dimethyl-6-(2-(1-methyl-1H-pyrazol-4-yl)morpholino)-8-((1s,4s)-4-methylcyclohexyl)pyrimido[5,4-d]pyrimidin-4 (3H)-one] | 75 to 110% | > 1 µM | 
17 | Cc1nc2c(-c3ccc(Cl)cc3F)nc(N3CC(COc4cnn(C)c4)C3)nc2c(=O)n1C [Example 15, 8-(4-chloro-2-fluorophenyl)-2,3-dimethyl-6-(3-(((1-methyl-1H-pyrazol-4-yl)oxy)methyl)azetidin-1-yl)pyrimido[5,4-d]pyrimidin-4 (3H)-one] | < 75% | > 1 µM | 
18 | Cc1nc2c(-c3ccc(Cl)cc3F)nc(N3CCN(C)C(c4cnn(C)c4)C3)nc2c(=O)n1C (stereo not shown) [Example 29, 8-(4-chloro-2-fluorophenyl)-2,3-dimethyl-6-(4-methyl-3-(1-methyl-1H-pyrazol-4-yl)piperazin-1-yl)pyrimido[5,4-d]pyrimidin-4(3H)-one] | < 75% | 0.1 to 1 µM | 
19 | Cc1nc2c(-c3ccc(Cl)cc3F)nc(N3CCN(CCF)C(c4cnn(C)c4)C3)nc2c(=O)n1C (stereo not shown) [Example 31, 8-(4-chloro-2-fluorophenyl)-6-(4-(2-fluoroethyl)-3-(1-methyl-1H-pyrazol-4-yl)piperazin-1-yl)-2,3-dimethylpyrimido[5,4-d]pyrimidin-4(3H)-one] | 75 to 110% | 0.01 to 0.1 µM | 
20 | Cc1nc2c(-c3ccc(Cl)cc3F)nc(N3CCN(CC(F)(F)F)C(c4cnn(C)c4)C3)nc2c(=O)n1C (stereo not shown) [Example 33, 8-(4-chloro-2-fluorophenyl)-2,3-dimethyl-6-(3-(1-methyl-1H-pyrazol-4-yl)-4-(2,2,2-trifluoroethyl)piperazin-1-yl)pyrimido[5,4-d]pyrimidin-4(3H)-one] | < 75% | 0.01 to 0.1 µM | 
